Assay [1] has as its system human epidermoid cancer cell line A-431. The assay is described as follows: MTT cell proliferation assay, human epidermoid (squamous) carcinoma cell line A-431. The settings on record: for Mean OD: MTT Optical Density at 570 nm. The format is cell-based. How it is done:
(§1) The three human skin cancer cell lines were: • 1) Human Melanoma cell line (A-2058). • 2) Human Epidermoid (Squamous) Carcinoma cell line (A-431). • 3) Human Basal Cell Carcinoma cell line (TE 354.T).
(§2) The cell lines were revived from cryostorage and cultured in the presence of the test and reference samples. An MIT assay was then performed on the cultures to determine the effect of the samples on the cell viability and proliferation. The percentage standard error of the mean was assessed and extreme outliers were removed if the SEM%>15. Preliminary statistical significance was assessed with an independent Student t-test at α<0.05 (with and without outliers). The methodology was based on the procedures reported by: • Ahn, N G, Campbell J S (1993). […] Proc Natl Acad Sci. 90: 5143-5147. • Galan-Cobo, A et al (2014). Functional inhibition of aquaporin-3 with a gold-based compound induces blockage of cell proliferation. J Cellul. Physiol. 229: 1787-1801. • Roomi, M W, Kalinovsky, J et al (2013) Effect of a nutrient mixture on matrix metalloproteinase-9 dimers in various human cancer cell lines. Inter 3 Oncol. 44: 936-942. • Huang, H C, Lin, M K et al (2013). Cardenolides and bufadienolide glycosides from Kalanchoe tubiflora and evaluation of cytotoxicity. Planta Medica. 79: 1362-1369. • Tilli, C M L J, Stavast-Kooy, A J W et al (2003). The garlic-derived organosulfur component ajoene decreases basal cell carcinoma tumor size by inducing apoptosis. Arch Dermatol Res. 295: 117-123.
(§3) • 1. Human melanoma cell line (A-2058, ATCC CRL11147) was obtained from ATCC, Bethesda, Md., USA. • 2. Human squamous (epidermoid) carcinoma cell line (A-431, ATCC CRL1555) was obtained from ATCC, Bethesda, Md. USA. • 3. Human basal cell carcinoma cell line (TE 354.T, ATCC CRL7762) was obtained from ATCC, Bethesda, Md., USA. • 4. Dulbecco's Modified Eagle's Medium (DMEM) was obtained from GIBCO (12100-038). 10% Foetal Bovine Serum (FBS), 100 U/ml Penicillin and […] Streptomycin were added before use. • 5. Penicillin-streptomycin solution, stored at −20° C. consisting of 10000 units/ml penicillin and 10 mg/ml streptomycin in 0.9% NaCl was obtained from Sigma (#P-0781). • 6. Trypsin-EDTA solution consisting of 0.25% Trypsin/EDTA was obtained from Invitrogen (#15400054). • 7. Phosphate buffered saline (PBS) was prepared in-house. • 8. Hanks Balanced Salt Solution (HBSS), stored at 4° C. was obtained from GIBCO (#14185-052). • 9. Foetal Bovine Serum (FBS) stored at −20° C. was obtained from GIBCO (#10091-148). • 10. MTT Reagent, 100 mg/vial, was obtained from Sigma (M-2128) and then dissolved in PBS at 10 mg/ml and stored at −20° C. A 5 mg/ml MTT solution was prepared in PBS and stored at 4° C. as the working solution. • 11. MU lysis buffer: 10% sodium dodecyl sulphate (SDS)/45% Dimethyl Formamide was prepared by dissolving 20 g SDS in 100 ml of double-distilled water (DDW), and then adding 90 ml of Dimethyl Formamide to the solution. The pH was adjusted to 4.7 by glacial acetic acid, and DDW added up to a final volume of 200 ml. • 12. 5-Fluorouracil (5-FU) was supplied by Sigma (F-6627). Three working solutions were prepared at 19.5 μg/ml. 6.5 μg/ml and 1.95 μg/ml dissolved in 15% Ethanol/HBSS. Final concentrations were 1.95 μg/ml (15 μM), 0.65 μg/ml (5 μM) and 0.195 μg/ml (1.5 μM).
(§4) • 1. Each of the cell lines was revived from cryostorage. • 2. Following initial propagation using the media described above (Characterisation of Test System, and Medium Preparation), the cell culture was subcultured using trypsin-EDTA. The media was removed and 5ml of the trypsin-EDTA solution added and incubated at 37° C. for 5 min or until all the cells had detached. The trypsin was neutralised by the addition of an equal volume of the relevant medium and centrifugation of the suspension at 300 g (1200 rpm) for 5 min at 4° C. • 3. […]

For assay [2], the system named is human basal carcinoma cell line TE 354.T. In words: MTT cell proliferation assay, human basal cell carcinoma cell line TE 354.T. The format is cell-based. The settings on record: for Mean OD: MTT Optical Density at 570 nm. On the procedure: as §1, §2, §3, §4

One may read the inhibition as the drop in the measured response relative to a control, in per cent. A higher inhibition goes with a strong effect. On to `O=c1[nH]cc(F)c(=O)[nH]1` [5-fluorouracil, reference compound], for which the “% inhibition” value in assay [1] (A-431, 0.195 μg/ml, 24 hr incubation, vs cells only) is “weak and statistically insignificant inhibitor”; in assay [1] (A-431, 0.65 μg/ml, 24 hr incubation, vs cells only), “weak and statistically insignificant inhibitor”; in assay [1] (A-431, 1.95 μg/ml, 24 hr incubation, vs cells only), “weak and statistically insignificant inhibitor”. Besides, the “Mean OD” value in assay [1] (A-431, 0.195 μg/ml) turned out to be 0.2364; in assay [1] (A-431, 0.65 μg/ml), 0.2416; in assay [1] (A-431, 1.95 μg/ml) it was 0.2561; in assay [2] (0.195 μg/ml), 0.2548; in assay [2] (0.65 μg/ml), 0.2656; in assay [2] (1.95 μg/ml), 0.2553. The inhibition at 0.195 µg/mL turned out to be 9.79% in assay [1] (Homo sapiens, A-431, 0.195 μg/ml, 24 hr incubation, vs cells only) and 5.49% in assay [2] (Homo sapiens, 0.195 μg/ml, 24 hr incubation, vs cells only). Also, the inhibition at 0.65 µg/mL in assay [1] (Homo sapiens, A-431, 0.65 μg/ml, 24 hr incubation, vs cells only) worked out at 7.8%; in assay [2] (Homo sapiens, 0.65 μg/ml, 24 hr incubation, vs cells only), 1.49%. Moreover, the inhibition at 1.95 µg/mL in assay [1] (Homo sapiens, A-431, 1.95 μg/ml, 24 hr incubation, vs cells only) is 2.26%; in assay [2] (Homo sapiens, 1.95 μg/ml, 24 hr incubation, vs cells only) it was 5.31%.

(Values after patent US20170209499A1, “Propolis and Extracts Thereof for the Treatment of Skin Cancers and Improvement of Skin Health” (Manuka Health New Zealand Limited, priority 2014, published 2017).)
